Counter-ions that a name gives are not always drawn.
Key:
P-gp [1] = target: T1, P-gp (Homo sapiens, UniProt P08183); assay: Inhibition of Calcein-AM transport in MDCK-MDR1 cells; assay type: cell-based; details: Calcein-AM, MDCK-MDR1 cells; mean ± SEM of two experiments
T1 construct: expressed in transfected cells; host or cells: MDCK-MDR1 (Madin-Darby Canine Kidney cells, gift of Prof. P. Borst, NKI-AVL)
Protocol: These experiments were carried out as previously described by Teodori et al. with minor modifications. Each cell line (30 000 cells per well) was seeded into black CulturePlate 96/wells plate with 100 µL medium and allowed to become confluent overnight. 100 µL of test compounds were solubilised in culture medium and added to monolayers, with final concentrations ranging from 1 nM to 100 µM. 96/Wells plate was incubated for 30 min in a humidified atmosphere 5% CO2 at 37 °C. Calcein-AM was added in 100 µL of Phosphate Buffered Saline (PBS) to yield a final concentration of 2.5 µM and plate was incubated for 30 min in a humidified atmosphere 5% CO2 at 37 °C. Each well was washed 3 times with ice cold PBS. Saline buffer was added to each well and the plate was read with Victor3 (PerkinElmer) at excitation and emission wavelengths of 485 and 535 nm, respectively. In these experimental conditions, Calcein cell accumulation in the absence and in the presence of tested compounds was evaluated and fluorescence basal level was estimated with untreated cells. In treated wells the increase of fluorescence with respect to basal level was measured. EC50 values were determined by fitting the fluorescence increase percentage versus log[dose].
The interaction potency between the designed compounds and P-gp was evaluated by measuring the transport inhibition of the pro-fluorescent probe Calcein-AM, that is a P-gp substrate, in a cell line overexpressing P-gp (MDCK-MDR1)[47]. The P-gp interacting profile was further investigated with two other assays: the Apparent Permeability (Papp) determination (BA/AB) in Caco-2 cell monolayer[48]^,[49], and the ATP cell depletion in the MDCK-MDR1 cell line[50]. […] Papp determination measures the ratio between two fluxes: from the basolateral to apical compartments (BA, representative of passive diffusion) and from the apical to basolateral compartments (AB, representative of active transport). […] In the same manner, if (BA/AB) >2, the compound should probably be classified as a substrate.

BCRP = target: T2, BCRP (Homo sapiens, UniProt Q9UNQ0); assay: Inhibition of Hoechst 33342 efflux in MDCK-BCRP cells; assay type: cell-based; details: Hoechst 33342, MDCK-BCRP cells; NA: not active
T2 construct: expressed in transfected cells; host or cells: MDCK-BCRP (Madin-Darby Canine Kidney cells, gift of Prof. P. Borst, NKI-AVL)
T2 sequence (Q9UNQ0 1-655): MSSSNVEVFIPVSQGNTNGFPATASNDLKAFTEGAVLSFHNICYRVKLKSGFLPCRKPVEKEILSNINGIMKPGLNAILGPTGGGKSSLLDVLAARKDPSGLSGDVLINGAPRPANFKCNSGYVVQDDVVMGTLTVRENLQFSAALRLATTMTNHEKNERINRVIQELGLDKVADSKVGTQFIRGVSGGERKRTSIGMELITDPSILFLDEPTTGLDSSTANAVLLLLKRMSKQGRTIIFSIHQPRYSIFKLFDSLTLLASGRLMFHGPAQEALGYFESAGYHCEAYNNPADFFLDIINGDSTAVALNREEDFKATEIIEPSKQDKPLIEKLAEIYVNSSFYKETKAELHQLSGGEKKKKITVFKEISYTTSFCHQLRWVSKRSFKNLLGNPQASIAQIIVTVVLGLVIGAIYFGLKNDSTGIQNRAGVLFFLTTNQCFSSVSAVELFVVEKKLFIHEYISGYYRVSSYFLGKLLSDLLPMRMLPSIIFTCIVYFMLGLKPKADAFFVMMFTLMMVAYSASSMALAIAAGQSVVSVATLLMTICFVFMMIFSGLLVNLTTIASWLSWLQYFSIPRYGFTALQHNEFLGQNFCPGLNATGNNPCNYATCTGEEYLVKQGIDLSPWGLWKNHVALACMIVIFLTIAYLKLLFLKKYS
Protocol: These experiments were carried out as described by Teodori et al.[34]. Each cell line (30 000 cells per well) was seeded into black CulturePlate 96/wells plate with 100 µL medium and allowed to become confluent overnight. 100 µL of test compounds were solubilised in culture medium and added to monolayers, with final concentrations ranging from 1 to 100 µM. 96/Wells plate was incubated for 30 min in a humidified atmosphere 5% CO2 at 37 °C. Hoechst 33342 was added in 100 µl of phosphate-buffered saline (PBS) to yield a final concentration of 8 µM and plate was incubated for 30 min in a humidified atmosphere 5% CO2 at 37 °C. The supernatants were drained, and the cells were fixed for 20 min under light protection using 100 µL per well of a 4% PFA solution. Each well was washed three times with ice cold PBS. Saline buffer was added to each well and the plate was read with Victor3 (PerkinElmer) at excitation and emission wavelengths of 340/35 nm and 485/20 nm, respectively. In these experimental conditions, Hoechst 33342 accumulation in the absence and in the presence of tested compounds was evaluated and fluorescence basal level was estimated with untreated cells. In treated wells, the increase of fluorescence with respect to basal level was measured. EC50 values were determined by fitting the fluorescence increase percentage versus log[dose]. […]

P-gp [2] = target: T1, P-gp; assay: ATP cell depletion (ATPlite assay) in MDCK-MDR1 cells; assay type: cell-based; details: Yes/No
Protocol: The MDCK-MDR1 cells were seeded into 96-well microplate in 100 µL of complete medium at a density 20,000 cells per well. The plate was incubated overnight (O/N) in a humidified atmosphere 5% CO2 at 37 °C. The medium was removed and 100 µL of complete medium either alone or containing different concentrations (ranging from 1 to 100 µM) of test compounds was added. The plate was incubated for 2 h in a humidified 5% CO2 atmosphere at 37 °C. 50 µL of mammalian cell lysis solution was added to all wells and the plate shacked for five minutes in an orbital shaker. 50 µL of substrate solution was added to all wells and the plate shacked for five minutes in an orbital shaker. The plate was dark adapted for ten minutes and the luminescence was measured.
(§1) The interaction potency between the designed compounds and P-gp was evaluated by measuring the transport inhibition of the pro-fluorescent probe Calcein-AM, that is a P-gp substrate, in a cell line overexpressing P-gp (MDCK-MDR1)[47]. The P-gp interacting profile was further investigated with two other assays: the Apparent Permeability (Papp) determination (BA/AB) in Caco-2 cell monolayer[48]^,[49], and the ATP cell depletion in the MDCK-MDR1 cell line[50]. Taking into account the results of the combined tests, an interacting compound can be classified as substrate or inhibitor. Papp determination measures the ratio between two fluxes: from the basolateral to apical compartments (BA, representative of passive diffusion) and from the apical to basolateral compartments (AB, representative of active transport). […] In the same manner, if (BA/AB) >2, the compound should probably be classified as a substrate. […] The selectivity of ligands 1–26 was evaluated by detecting their activity towards the other ABC transporters MRP1 and BCRP, by measuring the inhibition of the efflux of Calcein-AM (i.e., also a MRP1 substrate) in cells overexpressing MRP1 (MDCK-MRP1 cells), and the inhibition of the efflux of the fluorescent probe Hoechst 33342 (i.e. a BCRP substrate) in cells overexpressing BCRP (MDCK-BCRP cells), respectively.

[3] = Apparent permeability (Papp) determination (BA/AB) in Caco-2 cell monolayer; assay type: in vitro ADME; details: human, Caco-2 monolayer
Protocol: Caco-2 cells were seeded onto a Millicell® assay system (Millipore), where a cell monolayer is set in between a filter cell and a receiver plate, at a density of 10 000 cells/well[46]. The culture medium was replaced every 48 h and the cells kept for 21 days in culture. The Trans Epithelial Electrical Resistance (TEER) of the monolayers was measured daily, before and after the experiment, using an epithelial volt-ohmmeter (Millicell®-ERS). Generally, TEER values greater than 1000 Ω for a 21 days culture, are considered optimal.
After 21 days of Caco-2 cell growth, the medium was removed from filter wells and from the receiver plate, which were filled with fresh HBSS buffer (Invitrogen). This procedure was repeated twice, and the plates were incubated at 37 °C for 30 min. After incubation time, the HBSS buffer was removed and drug solutions and reference compounds were added to the filter well at the concentration of 100 µM, while fresh HBSS was added to the receiver plate. The plates were incubated at 37 °C for 120 min. Afterwards, samples were removed from the apical (filter well) and basolateral (receiver plate) side of the monolayer to measure the permeability.
as §1

[4] = Stability test in human plasma (LC-MS/MS); assay type: in vitro ADME; details: human, human plasma, 1 µM, 37 °C
Protocol: (§2) Each sample was prepared adding 10 µL of working solution 1 to 100 µL of tested matrix (PBS or human plasma) in micro centrifuge tubes. The obtained solutions correspond to 1 µM of analyte.
After the incubation, the samples were added with 300 µL of ISTD solution and centrifuged (room temperature for 5 min at 10,000 rpm). The supernatants were transferred in auto sampler vials and dried under a gentle stream of nitrogen.
(§3) The dried samples were dissolved in 1.0 ml of 10 mM of formic acid in mQ water: acetonitrile 80:20 solution. The obtained sample solutions were analysed by LC-MS/MS methods described in Supplementary material.
(§4) For this purpose, a series of experiments were carried out, adding a known amount of analyte in both phosphate buffer solution (PBS) and in human plasma. The samples were analysed by LC-MS/MS method operating in Multiple Reaction Monitoring (MRM) mode[55].
The analyte concentration (1 µM) used during the stability tests is generally smaller than the corresponding Michaelis–Menten constant (KM); therefore, the enzymatic degradation rate is described by a first-order kinetic. Then, by plotting the natural logarithm of the quantitative data versus the incubation time, a linear function can be used and its slope represents the degradation rate (k).

[5] = Stability test in phosphate buffer solution (PBS); assay type: physicochemical; details: 1 µM, 37 °C, up to 120 min
Protocol: as §2
Each set of samples was incubated in triplicate at four different times, 0, 30, 60 and 120 min at 37 °C. Therefore, the degradation profile of each analyte was represented by a batch of 12 samples (4 incubation times × 3 replicates). After the incubation, the samples were added with 300 µL of ISTD solution and centrifuged (room temperature for 5 min at 10,000 rpm). The supernatants were transferred in auto sampler vials and dried under a gentle stream of nitrogen.
as §3
as §4, with “Due to the presence of ester or amide groups in the structure of compounds 1–26, a study aimed to evaluate their susceptibility to spontaneous or enzymatic hydrolysis, was planned. For” for “For”, “mode[55]. […]” for “mode[55].”

MDCK-MDR1 cells = assay: Co-administration assay with doxorubicin (MTT), MDCK-MDR1 cells; assay type: cell-based, canine; details: 10 µM, MDCK cells overexpressing P-gp
Protocol: The co-administration assay with doxorubicin was performed in MDCK-MDR1, HT29, HT29/DX, A549 and A549/DX cells at 48 h. On day 1, 10,000 cells/well were seeded into 96-well plates in a volume of 100 µL of fresh medium. On day 2, the tested drug was added alone to the cells at different concentrations (ranging from 40 nM to 10 µM). On day 3, the medium was removed and the drug at the same concentrations was added alone and in co-administration with 10 µM doxorubicin to the cells. After the established incubation time with the tested drug, MTT (0.5 mg/mL) was added to each well, and after 3 − 4 h incubation at 37 °C, the supernatant was removed. The formazan crystals were solubilised using 100 µL of DMSO/EtOH (1:1), and the absorbance values at 570 and 630 nm were determined on the microplate reader HTX Synergy (Bio-Tek Instruments).

T1 sequence (P08183 whole entry): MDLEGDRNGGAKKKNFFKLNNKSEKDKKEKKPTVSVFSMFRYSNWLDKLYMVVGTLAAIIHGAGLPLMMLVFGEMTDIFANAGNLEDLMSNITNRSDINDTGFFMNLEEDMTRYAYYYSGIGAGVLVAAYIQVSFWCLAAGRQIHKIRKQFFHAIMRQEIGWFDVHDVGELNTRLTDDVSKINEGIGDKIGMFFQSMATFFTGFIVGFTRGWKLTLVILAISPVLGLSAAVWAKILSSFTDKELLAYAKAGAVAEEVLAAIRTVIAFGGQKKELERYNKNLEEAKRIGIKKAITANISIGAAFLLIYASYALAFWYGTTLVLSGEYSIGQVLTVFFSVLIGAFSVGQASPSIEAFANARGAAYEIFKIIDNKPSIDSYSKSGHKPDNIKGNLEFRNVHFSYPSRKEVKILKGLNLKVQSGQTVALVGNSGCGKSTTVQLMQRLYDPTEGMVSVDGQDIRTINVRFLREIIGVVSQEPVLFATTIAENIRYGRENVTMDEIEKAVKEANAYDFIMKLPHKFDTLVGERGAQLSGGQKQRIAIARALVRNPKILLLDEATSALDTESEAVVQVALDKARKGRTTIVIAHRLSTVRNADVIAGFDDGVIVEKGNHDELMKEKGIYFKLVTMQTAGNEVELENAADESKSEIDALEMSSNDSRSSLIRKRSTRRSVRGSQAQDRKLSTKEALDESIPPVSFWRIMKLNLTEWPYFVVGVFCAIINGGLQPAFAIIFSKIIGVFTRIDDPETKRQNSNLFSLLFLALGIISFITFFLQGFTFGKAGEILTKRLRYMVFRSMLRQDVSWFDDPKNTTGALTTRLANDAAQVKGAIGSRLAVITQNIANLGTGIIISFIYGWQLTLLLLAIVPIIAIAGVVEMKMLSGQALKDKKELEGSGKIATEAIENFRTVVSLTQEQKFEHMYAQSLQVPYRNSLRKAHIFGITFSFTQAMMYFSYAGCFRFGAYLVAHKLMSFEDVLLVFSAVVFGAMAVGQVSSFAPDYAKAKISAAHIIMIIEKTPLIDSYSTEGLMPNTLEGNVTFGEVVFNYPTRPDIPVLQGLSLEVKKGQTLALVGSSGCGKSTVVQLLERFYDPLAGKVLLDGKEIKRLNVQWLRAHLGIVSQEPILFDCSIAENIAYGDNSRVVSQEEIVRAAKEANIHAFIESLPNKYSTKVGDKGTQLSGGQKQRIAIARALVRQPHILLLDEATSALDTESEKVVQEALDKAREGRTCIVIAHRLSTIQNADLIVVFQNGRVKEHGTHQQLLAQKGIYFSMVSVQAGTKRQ

In the case of `COc1cc2c(cc1OC)CN(CCc1ccc(NC(=O)c3cc(OC)c(OC)cc3NC(=O)c3cnc4ccccc4c3)cc1)CC2` [tariquidar, reference compound], the EC50 (P-gp [1]) is reported as 44 ± 1 nM, the EC50 (BCRP) is reported as 10 ± 5 nM and the ATP cell depletion (P-gp [2]) is reported as “Yes^f”. For the same compound, the efflux ratio at 120 min, 100 µM [3] was > 20.
With `COc1cncc(C(=O)Oc2ccc(CCN3CCc4cc(OC)c(OC)cc4C3)cc2)n1` [Compound 25, 4–(2-(6,7-Dimethoxy-3,4-dihydroisoquinolin-2(1H)-yl)ethyl)phenyl 6-methoxypyrazine-2-carboxylate] the EC50 (P-gp [1]) was 220 ± 40 nM, the ATP cell depletion (P-gp [2]) was “No” and the efflux ratio at 120 min, 100 µM [3] was 4.7. For the same compound, the half-life at 1 µM [4] was ~6 min and the “stability in PBS” value [5] was “unmodified”.
Compound `COc1cc2c(cc1OC)CN(CCc1ccc(NC(=O)c3c(OC)cccc3OC)cc1)CC2` (as salt: hydrochloride) [Compound 4, N-(4–(2-(6,7-dimethoxy-3,4-dihydroisoquinolin-2(1H)-yl)ethyl)phenyl)-2,6-dimethoxybenzamide] has a melting point of 212 to 214 °C.
`COc1ccc2nccc(C(=O)Nc3ccc(CCN4CCc5cc(OC)c(OC)cc5C4)cc3)c2c1` (as salt: hydrochloride) [Compound 13, N-(4–(2-(6,7-dimethoxy-3,4-dihydroisoquinolin-2(1H)-yl)ethyl)phenyl)-6-methoxyquinoline-4-carboxamide] showed a melting point of 228 to 230 °C.
In the case of `COc1cc2c(cc1OC)CN(CCc1ccc(NC(=O)c3c(OC)ccc4ccccc34)cc1)CC2` (as salt: hydrochloride) [Compound 7, N-(4–(2-(6,7-dimethoxy-3,4-dihydroisoquinolin-2(1H)-yl)ethyl)phenyl)-2-methoxy-1-naphthamide], the melting point is reported as 239 to 241 °C.
`COc1cc2c(cc1OC)CN(CCc1ccc(NC(=O)c3c(OC)c(OC)cc4ccccc34)cc1)CC2` (as salt: hydrochloride) [Compound 8, N-(4–(2-(6,7-dimethoxy-3,4-dihydroisoquinolin-2(1H)-yl)ethyl)phenyl)-2,3-dimethoxy-1-naphthamide] showed a melting point of 245 to 248 °C.
With `COc1cccc2c1C(=O)c1c(O)c3c(c(O)c1C2=O)C[C@@](O)(C(=O)CO)C[C@@H]3O[C@H]1C[C@H](N)[C@H](O)[C@H](C)O1` [doxorubicin, reference compound] the “cytotoxicity of doxorubicin alone” value (MDCK-MDR1 cells) was “did not show cytotoxicity”.

Source: article PMC7178819, “6,7-Dimethoxy-2-phenethyl-1,2,3,4-tetrahydroisoquinoline amides and corresponding ester isosteres as multidrug resistance reversers” (Journal of Enzyme Inhibition and Medicinal Chemistry, 2020)
